We go through 25 compounds from ChEMBL document CHEMBL3779848, “Effect of chlorine substituent on cytotoxic activities: Design and synthesis of systematically modified 2,4-diphenyl-5H-indeno[1,2-b]pyridines” (Bioorg Med Chem Lett, 2016).

Assay [1] concerns the target T1, DNA topoisomerase 1 (Homo sapiens) (UniProt P11387).
T1 sequence (whole entry): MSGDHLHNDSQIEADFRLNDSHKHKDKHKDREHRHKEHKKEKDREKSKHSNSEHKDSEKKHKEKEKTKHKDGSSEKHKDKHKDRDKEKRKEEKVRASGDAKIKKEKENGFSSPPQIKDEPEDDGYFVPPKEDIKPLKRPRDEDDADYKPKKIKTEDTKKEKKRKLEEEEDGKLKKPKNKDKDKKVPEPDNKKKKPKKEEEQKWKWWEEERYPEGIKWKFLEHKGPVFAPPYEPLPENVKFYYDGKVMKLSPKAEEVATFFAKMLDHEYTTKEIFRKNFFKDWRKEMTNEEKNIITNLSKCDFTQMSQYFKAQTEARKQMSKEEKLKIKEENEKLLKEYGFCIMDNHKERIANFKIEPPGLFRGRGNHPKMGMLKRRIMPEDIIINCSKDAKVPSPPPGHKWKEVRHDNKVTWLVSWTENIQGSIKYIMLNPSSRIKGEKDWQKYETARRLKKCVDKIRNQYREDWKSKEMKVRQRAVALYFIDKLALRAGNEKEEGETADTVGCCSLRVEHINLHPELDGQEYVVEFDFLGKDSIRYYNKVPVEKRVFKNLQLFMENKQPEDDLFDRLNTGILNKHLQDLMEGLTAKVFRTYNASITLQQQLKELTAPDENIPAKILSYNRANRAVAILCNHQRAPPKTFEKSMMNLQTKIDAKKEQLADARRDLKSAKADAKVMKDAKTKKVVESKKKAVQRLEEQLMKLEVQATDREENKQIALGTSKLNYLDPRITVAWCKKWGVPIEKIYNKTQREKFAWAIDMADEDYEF
As to the kind of experiment: Inhibition of human recombinant DNA topoisomerase 1 at 100 uM assessed as relaxation of supercoiled DNA pBR322 after 30 mins by Agarose gel electrophoresis.

For assay [2], the target named is DNA topoisomerase 2-alpha (Homo sapiens) (UniProt P11388). Nature of the assay: Inhibition of human recombinant DNA topoisomerase 2alpha at 100 uM assessed as relaxation of supercoiled DNA pBR322 after 30 mins by Agarose gel electrophoresis.
DNA topoisomerase 2-alpha (Homo sapiens), sequence (P11388 whole entry): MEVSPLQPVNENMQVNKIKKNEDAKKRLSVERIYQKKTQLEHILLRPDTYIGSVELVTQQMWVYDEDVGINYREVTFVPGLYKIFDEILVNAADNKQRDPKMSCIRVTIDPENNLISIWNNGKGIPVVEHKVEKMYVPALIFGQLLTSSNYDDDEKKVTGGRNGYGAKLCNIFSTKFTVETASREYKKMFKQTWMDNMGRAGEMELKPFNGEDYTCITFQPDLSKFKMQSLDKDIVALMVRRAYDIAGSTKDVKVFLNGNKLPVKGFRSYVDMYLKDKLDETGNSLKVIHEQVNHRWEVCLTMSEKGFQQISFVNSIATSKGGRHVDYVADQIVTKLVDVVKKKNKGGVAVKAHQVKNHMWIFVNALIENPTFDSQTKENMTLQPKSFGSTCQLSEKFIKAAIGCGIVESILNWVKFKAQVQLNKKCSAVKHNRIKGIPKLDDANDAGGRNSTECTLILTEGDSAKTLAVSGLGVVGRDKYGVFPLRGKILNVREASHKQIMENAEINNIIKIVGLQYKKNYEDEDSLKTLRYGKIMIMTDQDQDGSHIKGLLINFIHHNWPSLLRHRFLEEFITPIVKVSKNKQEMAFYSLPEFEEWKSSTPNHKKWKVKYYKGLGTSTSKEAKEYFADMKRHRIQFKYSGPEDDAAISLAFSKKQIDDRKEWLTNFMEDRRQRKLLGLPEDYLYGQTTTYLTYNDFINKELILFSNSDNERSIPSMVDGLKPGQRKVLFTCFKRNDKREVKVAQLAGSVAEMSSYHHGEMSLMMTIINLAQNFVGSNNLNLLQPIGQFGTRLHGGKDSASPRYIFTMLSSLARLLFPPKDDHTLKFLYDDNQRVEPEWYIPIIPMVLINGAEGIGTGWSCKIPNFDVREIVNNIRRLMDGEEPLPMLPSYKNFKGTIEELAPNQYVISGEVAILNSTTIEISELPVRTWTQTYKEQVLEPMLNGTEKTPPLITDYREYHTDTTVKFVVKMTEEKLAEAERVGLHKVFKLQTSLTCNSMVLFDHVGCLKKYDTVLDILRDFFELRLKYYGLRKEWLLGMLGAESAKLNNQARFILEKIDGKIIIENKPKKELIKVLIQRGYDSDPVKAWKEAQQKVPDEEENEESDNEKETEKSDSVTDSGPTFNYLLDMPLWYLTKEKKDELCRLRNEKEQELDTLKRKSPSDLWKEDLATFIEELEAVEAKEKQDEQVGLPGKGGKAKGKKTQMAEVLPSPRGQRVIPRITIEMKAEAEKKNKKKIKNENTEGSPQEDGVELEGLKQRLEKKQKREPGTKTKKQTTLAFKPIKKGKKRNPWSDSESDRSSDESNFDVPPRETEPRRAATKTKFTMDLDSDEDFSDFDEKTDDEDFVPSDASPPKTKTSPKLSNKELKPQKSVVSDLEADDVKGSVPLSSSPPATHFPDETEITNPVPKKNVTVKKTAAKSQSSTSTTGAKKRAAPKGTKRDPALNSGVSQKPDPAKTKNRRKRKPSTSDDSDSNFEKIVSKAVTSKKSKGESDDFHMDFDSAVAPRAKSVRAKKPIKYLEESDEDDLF
Assay [3] concerns T47D. Nature of the assay: Cytotoxicity against human T47D cells after 3 days by CCK8 assay. Format: functional, cell-based. The following applies: 72 h. For orientation: Formazan colour is commonly taken as a measure of viable cells.
A short description of assay [4]: Cytotoxicity against human HCT15 cells after 3 days by CCK8 assay. Format: functional, cell-based. The following applies: HCT-15, 72 h.
In assay [5] the test system is HeLa. Nature of the assay: Cytotoxicity against human HeLa cells after 3 days by CCK8 assay. Format: functional, cell-based. Particulars: 72 h.
Assay [6] relates to HeLa. Nature of the assay: Potency index, ratio of IC50 for adriamycin to IC50 for test compound for cytotoxicity against human HeLa cells. Format: functional.
A short description of assay [7]: Potency index, ratio of IC50 for adriamycin to IC50 for test compound for cytotoxicity against human HCT15 cells. Format: functional, HCT-15.
Assay [8] concerns T47D. As to the kind of experiment: Potency index, ratio of IC50 for adriamycin to IC50 for test compound for cytotoxicity against human T47D cells. Format: functional.

Structures are written as SMILES. Where a name gives a salt, the structure may show the parent alone.

In the case of `c1ccc(-c2cc(-c3ccccc3)c3c(n2)-c2ccccc2C3)cc1`, the figures for the inhibition in assay [1] and in assay [2] were 0% and 17.8%, respectively. Moreover, the IC50 in assay [3] is 26800 nM; in assay [4] it was above 50000 nM; in assay [5] it was 17300 nM.

As to `Oc1cccc(-c2cc(-c3ccc(Cl)cc3)c3c(n2)-c2ccccc2C3)c1`, the “Ratio IC50” value in assay [6] turned out to be 0.36; in assay [7], 0.05; in assay [8], 0.99. In addition, the results for the inhibition in assay [1] and in assay [2] were 5.8% and 3.8%, respectively. Also, the IC50 in assay [3] worked out at 1490 nM; in assay [4], 2090 nM; in assay [5], 2270 nM.

With `Oc1ccccc1-c1cc(-c2cccc(Cl)c2)nc2c1Cc1ccccc1-2`, the inhibition was 0% in assay [1] and 5.4% in assay [2]. Besides, the IC50 in assay [3] is above 50000 nM; in assay [4], 30300 nM; in assay [5] it was 17100 nM.

Take `Oc1ccccc1-c1cc(-c2ccc(Cl)cc2)c2c(n1)-c1ccccc1C2`: the inhibition in assay [1] turned out to be 8.3%; in assay [2] it was 2.8%. The IC50 in assay [3], in assay [4] and in assay [5] was above 50000 nM throughout.

On to `Oc1ccc(-c2cc(-c3ccccc3Cl)nc3c2Cc2ccccc2-3)cc1`, for which the “Ratio IC50” value came to 0.3 in assay [6], 0.05 in assay [7] and 1.86 in assay [8]. Besides, the values for the inhibition in assay [1] and in assay [2] were 0% and 3.5%, respectively. In addition, the figures for the IC50 in assay [3], in assay [4] and in assay [5] were 790 nM, 1820 nM and 2700 nM, respectively.

In the case of `Oc1cccc(-c2cc(-c3ccccc3Cl)c3c(n2)-c2ccccc2C3)c1`, the figures for the “Ratio IC50” value in assay [6], in assay [7] and in assay [8] were 0.31, 0.08 and 0.67, respectively. Besides, the inhibition in assay [1] is 29.3%; in assay [2], 6.7%. For the same compound, the results for the IC50 in assay [3], in assay [4] and in assay [5] were 2190 nM, 1170 nM and 2650 nM, respectively.

Consider `Oc1ccc(-c2cc(-c3cccc(Cl)c3)nc3c2Cc2ccccc2-3)cc1`, for which the “Ratio IC50” value came out at 0.16 in assay [6], 0.32 in assay [7] and 1.03 in assay [8]. Further, the inhibition worked out at 0% in assay [1] and 3% in assay [2]. In addition, the IC50 in assay [3] stood at 1420 nM; in assay [4], 310 nM; in assay [5] it was 5040 nM.

`Oc1ccccc1-c1cc(-c2ccc(Cl)cc2)nc2c1Cc1ccccc1-2`: the values for the inhibition in assay [1] and in assay [2] were 0% and 2.7%, respectively. In addition, the IC50 in assay [3], in assay [4] and in assay [5] was above 50000 nM each time.

Regarding `COc1cccc2c1C(=O)c1c(O)c3c(c(O)c1C2=O)C[C@@](O)(C(=O)CO)C[C@@H]3O[C@H]1C[C@H](N)[C@H](O)[C@H](C)O1` [DOXORUBICIN HYDROCHLORIDE], in assay [5], it took 820 nM to reach half-maximal inhibition (IC50).

`Oc1ccccc1-c1cc(-c2ccccc2)c2c(n1)-c1ccccc1C2`: the inhibition in assay [1] was found to be 1.3%; in assay [2], 36.4%. Further, the half-inhibitory concentration (IC50) in assay [3], in assay [4] and in assay [5] was above 50000 nM throughout.

On to `Oc1ccc(-c2cc(-c3ccccc3)nc3c2Cc2ccccc2-3)cc1`, for which the “Ratio IC50” value in assay [6] was determined as 0.18; in assay [7], 0.57; in assay [8], 0.98. In addition, the figures for the inhibition in assay [1] and in assay [2] were 25.9% and 65.9%, respectively. The IC50 in assay [3] is 1360 nM; in assay [4], 2150 nM; in assay [5], 4840 nM.

As for `Oc1ccccc1-c1cc(-c2ccccc2Cl)c2c(n1)-c1ccccc1C2`, the values for the inhibition in assay [1] and in assay [2] were 0% and 4.8%, respectively. Also, the IC50 in assay [3], in assay [4] and in assay [5] was above 50000 nM throughout.

Consider `Oc1ccccc1-c1cc(-c2cccc(Cl)c2)c2c(n1)-c1ccccc1C2`, for which the inhibition in assay [1] amounted to 1.1%; in assay [2], 2.8%. The IC50 in assay [3], in assay [4] and in assay [5] was above 50000 nM throughout.

`CC[C@@]1(O)C(=O)OCc2c1cc1n(c2=O)Cc2cc3ccccc3nc2-1` [CAMPTOTHECIN]: the IC50 in assay [3] amounted to 11200 nM; in assay [4], 1290 nM; in assay [5], 590 nM.

For the compound `Oc1cccc(-c2cc(-c3ccccc3)c3c(n2)-c2ccccc2C3)c1`, the “Ratio IC50” value in assay [6] amounted to 0.29; in assay [7], 0.45; in assay [8], 0.34. The inhibition in assay [1] is 2.3%; in assay [2], 76%. Moreover, the IC50 is 3930 nM in assay [3], 2710 nM in assay [4] and 2990 nM in assay [5].

As for `Oc1ccc(-c2cc(-c3ccc(Cl)cc3)c3c(n2)-c2ccccc2C3)cc1`, the entries for the “Ratio IC50” value in assay [6], in assay [7] and in assay [8] were 0.33, 0.11 and 1.67, respectively. The inhibition is 19.1% in assay [1] and 8.5% in assay [2]. In addition, the IC50 in assay [3] is 880 nM; in assay [4], 930 nM; in assay [5], 2450 nM.

With `Oc1ccc(-c2cc(-c3ccccc3)c3c(n2)-c2ccccc2C3)cc1`, the “Ratio IC50” value is 0.22 in assay [6], 0.61 in assay [7] and 0.63 in assay [8]. Besides, the inhibition was found to be 5.2% in assay [1] and 80.6% in assay [2]. In addition, the half-maximal inhibitory concentration (IC50) in assay [3] was determined as 2100 nM; in assay [4], 2010 nM; in assay [5], 3930 nM.

Regarding `Oc1ccccc1-c1cc(-c2ccccc2)nc2c1Cc1ccccc1-2`, the inhibition in assay [1] was 15.1%; in assay [2], 69.6%. In addition, the IC50 in assay [3], in assay [4] and in assay [5] was above 50000 nM each time.

For the compound `Oc1cccc(-c2cc(-c3ccccc3)nc3c2Cc2ccccc2-3)c1`, the “Ratio IC50” value in assay [6] amounted to 0.22; in assay [7] it was 0.91; in assay [8], 0.86. In addition, the inhibition was 20.6% in assay [1] and 70.5% in assay [2]. Further, the IC50 in assay [3] is 1550 nM; in assay [4], 1350 nM; in assay [5], 4000 nM.

`Oc1cccc(-c2cc(-c3ccc(Cl)cc3)nc3c2Cc2ccccc2-3)c1`: the “Ratio IC50” value in assay [6] came to 0.12; in assay [7] it was 0.05; in assay [8] it was 1.08. The inhibition was determined as 0% in assay [1] and 3.9% in assay [2]. The IC50 worked out at 1360 nM in assay [3], 1880 nM in assay [4] and 6580 nM in assay [5].

`Oc1cccc(-c2cc(-c3cccc(Cl)c3)nc3c2Cc2ccccc2-3)c1`: the “Ratio IC50” value in assay [6] was found to be 0.18; in assay [7] it was 0.03; in assay [8], 1.11. Moreover, the figures for the inhibition in assay [1] and in assay [2] were 0% and 3.2%, respectively. The IC50 was found to be 1320 nM in assay [3], 3090 nM in assay [4] and 4590 nM in assay [5].

On to `Oc1cccc(-c2cc(-c3ccccc3Cl)nc3c2Cc2ccccc2-3)c1`, for which the figures for the “Ratio IC50” value in assay [6], in assay [7] and in assay [8] were 0.41, 0.25 and 4.74, respectively. In addition, the inhibition in assay [1] worked out at 0%; in assay [2], 3.1%. Also, the IC50 worked out at 310 nM in assay [3], 400 nM in assay [4] and 2010 nM in assay [5].

For `COc1cc([C@@H]2c3cc4c(cc3[C@@H](O[C@@H]3O[C@@H]5CO[C@@H](C)O[C@H]5[C@H](O)[C@H]3O)[C@H]3COC(=O)[C@H]23)OCO4)cc(OC)c1O` [ETOPOSIDE], the IC50 was 1840 nM in assay [3], 2820 nM in assay [4] and 180 nM in assay [5].

Turning to `Oc1ccc(-c2cc(-c3ccc(Cl)cc3)nc3c2Cc2ccccc2-3)cc1`, the “Ratio IC50” value came to 0.19 in assay [6], 0.11 in assay [7] and 1.16 in assay [8]. Further, the inhibition stood at 1.4% in assay [1] and 3.2% in assay [2]. In addition, the IC50 in assay [3] came out at 1270 nM; in assay [4], 870 nM; in assay [5], 4340 nM.

For the compound `Oc1ccccc1-c1cc(-c2ccccc2Cl)nc2c1Cc1ccccc1-2`, the inhibition amounted to 0.8% in assay [1] and 1.9% in assay [2]. Also, the IC50 in assay [3] stood at 6640 nM; in assay [4], 6230 nM; in assay [5], 7010 nM.

In general, inhibition refers to how much of the control response was suppressed. For orientation: IC50 means the concentration that inhibits the measured activity by half. The low end stands for greater potency, the high end for weaker potency.
